From the NIST ThermoML archive (doi:10.1016/j.jct.2014.01.002)
Numbers after ± are expanded uncertainties.

Assay: excess molar enthalpy (molar enthalpy of mixing); xn = mol fraction of the nth substance listed
Conditions: 298.15 K, 99 kPa, Liquid, Calvet calorimetry

CCCCCO [pentan-1-ol] + CCCCCC
excess molar enthalpy (x1 = 0.0241): 0.0686 ± 0.00143 kcal/mol
excess molar enthalpy (x1 = 0.0501): 0.0848 ± 0.00191 kcal/mol
excess molar enthalpy (x1 = 0.0573): 0.0887 ± 0.00191 kcal/mol
excess molar enthalpy (x1 = 0.1085): 0.103 ± 0.00215 kcal/mol
excess molar enthalpy (x1 = 0.1504): 0.112 ± 0.00239 kcal/mol
excess molar enthalpy (x1 = 0.1912): 0.121 ± 0.00263 kcal/mol
excess molar enthalpy (x1 = 0.2341): 0.127 ± 0.00287 kcal/mol
excess molar enthalpy (x1 = 0.2905): 0.129 ± 0.00287 kcal/mol
excess molar enthalpy (x1 = 0.3433): 0.13 ± 0.00287 kcal/mol
excess molar enthalpy (x1 = 0.3934): 0.128 ± 0.00287 kcal/mol
excess molar enthalpy (x1 = 0.4452): 0.125 ± 0.00263 kcal/mol
excess molar enthalpy (x1 = 0.5771): 0.0982 ± 0.00215 kcal/mol
excess molar enthalpy (x1 = 0.5794): 0.0985 ± 0.00215 kcal/mol
excess molar enthalpy (x1 = 0.6531): 0.0798 ± 0.00167 kcal/mol
excess molar enthalpy (x1 = 0.6979): 0.0672 ± 0.00143 kcal/mol
excess molar enthalpy (x1 = 0.7463): 0.0535 ± 0.0012 kcal/mol
excess molar enthalpy (x1 = 0.803): 0.0368 ± 0.000956 kcal/mol
excess molar enthalpy (x1 = 0.9021): 0.0151 ± 0.000478 kcal/mol

C1CCCCC1 [cyclohexane] + CCCCCC
excess molar enthalpy (x1 = 0.0524): 0.00813 ± 0.000239 kcal/mol
excess molar enthalpy (x1 = 0.1136): 0.017 ± 0.000478 kcal/mol
excess molar enthalpy (x1 = 0.1603): 0.0232 ± 0.000478 kcal/mol
excess molar enthalpy (x1 = 0.2014): 0.0282 ± 0.000717 kcal/mol
excess molar enthalpy (x1 = 0.2485): 0.0335 ± 0.000717 kcal/mol
excess molar enthalpy (x1 = 0.3022): 0.0392 ± 0.000956 kcal/mol
excess molar enthalpy (x1 = 0.3647): 0.0442 ± 0.000956 kcal/mol
excess molar enthalpy (x1 = 0.4379): 0.049 ± 0.0012 kcal/mol
excess molar enthalpy (x1 = 0.4819): 0.0509 ± 0.0012 kcal/mol
excess molar enthalpy (x1 = 0.5388): 0.0526 ± 0.0012 kcal/mol
excess molar enthalpy (x1 = 0.5621): 0.0528 ± 0.0012 kcal/mol
excess molar enthalpy (x1 = 0.6166): 0.0526 ± 0.0012 kcal/mol
excess molar enthalpy (x1 = 0.6576): 0.0516 ± 0.0012 kcal/mol
excess molar enthalpy (x1 = 0.7177): 0.0483 ± 0.0012 kcal/mol
excess molar enthalpy (x1 = 0.7702): 0.0435 ± 0.000956 kcal/mol
excess molar enthalpy (x1 = 0.8085): 0.0392 ± 0.000956 kcal/mol
excess molar enthalpy (x1 = 0.8623): 0.0318 ± 0.000717 kcal/mol
excess molar enthalpy (x1 = 0.9276): 0.0191 ± 0.000478 kcal/mol
